Results as given in PMC10518255, “A first-in-class pan-lysyl oxidase inhibitor impairs stromal remodeling and enhances gemcitabine response and survival in pancreatic cancer” (Nature Cancer, 2023).
Several values for one entry are separate records, joined by “and”; a condition that tells them apart may be missing. Equal values may be shown once.

Columns and labels:
Microsomal stability = type: in vitro ADME; settings: microsomes; In vitro (human)
Hepatocyte stability = type: in vitro ADME; settings: hepatocytes; In vitro (human)
[1] = tested on: Lysyl oxidase family activity in ear; experiment: Target engagement: lysyl oxidase family activity in ear after single 30 mg/kg oral dose (Fig. 2g); type: in vivo, rat; set-up: Lysyl oxidase family activity in the ear: unit not given here; settings: rats; for Lysyl oxidase family activity in the ear: single 30 mg/kg oral, individual samples, 30 mg/kg
Protocol: (§1) Data are presented as mean ± s.d. Two-tailed P value determined by unpaired, nonparametric t-test with a Mann–Whitney U-test correction (comparison to PBS control). h, Lysyl oxidase family activity measured in freshly excised aorta determined by fluorometric activity assay n = 19 (PBS), 5 (4–120 h) biological independent samples. Data presented as mean ± s.d. Two-tailed P value determined by unpaired, nonparametric t-test with a Mann–Whitney U-test correction (comparison to PBS control).
(§2) To confirm that PXS-5505 inhibits lysyl oxidase family enzymatic activity in tissues, target engagement experiments were performed following a single oral dose (30 mg kg^−1) in rats. […] Lysyl oxidase family activity was measured in two tissues; aorta (core tissue) and ear (peripheral tissue).

[2] = tested on: Lysyl oxidase family activity in aorta; experiment: Target engagement: lysyl oxidase family activity in freshly excised aorta, fluorometric activity assay (Fig. 2h); type: in vivo, rat; set-up: Lysyl oxidase family activity in freshly excised aorta: unit not given here; settings: for Lysyl oxidase family activity in freshly excised aorta: single 30 mg/kg oral, individual samples, 30 mg/kg
Protocol: as §1, §2

CD8 = experiment: Immunohistochemistry of end-point KPC tumors: T-cell infiltration; type: in vivo, mouse; settings: KPC tumours at endpoint; individual replicate values (Extended Data 6I)
Protocol: All tissues or matrices, including patient TMAs, were fixed in 10% buffered formalin and embedded in paraffin. The 4-μm sections of samples were deparaffinized with xylene and rehydrated in graded ethanol washes. For immunohistochemistry, Bond Dewax Solution (AR9222) was used. Antigen retrieval was performed using Bond RX H2(30) protocol: HIER 30 min ER1 (citrate pH 6) OR ER2 (EDTA pH 9) at 100 °C. Slides were quenched in BOND Polymer Refine Detection (Leica Biosystems DS9800). […] Slides were digitized on an Aperio slide scanner and representative areas per tumor acquired and analyzed by researchers blinded to the conditions of the experiment.
Extended Data Fig. 6 PXS-5505 in combination with gemcitabine in a KPC model. a. Quantification of proliferating cells (Ki67 positive nuclear staining) in KPC tumors at end point, treated as indicated. 5 fields of view (500 μm × 500 μm) per mouse and 10 mice per cohort were scored. […] Quantification of percent coverage of αSMA positive staining in KPC tumors at end point, treated as indicated. 3 fields of view (1000 μm × 1000 μm) per mouse and 10 mice per cohort were scored. […] Quantification of percent coverage of PDGFR-ß positive staining in KPC tumors at end point, treated as indicated. 3 fields of view (1000 μm × 1000 μm) per mouse and 10 mice per cohort were scored. […] 3 fields of view (500 μm × 500 μm) per mouse and 10 mice per cohort were scored. […]

[3] = Preclinical genotoxicity and toxicity studies; type: in vivo

With `Cl.Cl.NC/C=C(\F)CS(=O)(=O)c1cccc2cccnc12.O` [PXS-5505, (Z)-3-fluoro-4-(quinolin-8-ylsulfonyl)but-2-en-1-amine dihydrochloride monohydrate] the remaining at 1 h (Microsomal stability) was 97%, the remaining at 1 h (Hepatocyte stability) was 90% and the “recovery of lysyl oxidase family activity in the ear” value ([1]; single 30 mg kg−1 oral, over 120 h) was “approximately 50%”. For the same molecule, the “Lysyl oxidase family activity in the ear” value ([1]; 4 h) was 45.365 and 48.796 and 39.3331 and 45.8641 and 44.4191, the “Lysyl oxidase family activity in the ear” value ([1]; 24 h) was 63.1181 and 58.052 and 51.7601 and 46.8877 and 41.975 and the “Lysyl oxidase family activity in the ear” value ([1]; 48 h) was 53.5883 and 61.6934 and 50.7554 and 53.1219. For the same molecule, the “Lysyl oxidase family activity in the ear” value ([1]; 120 h) was 62.7632 and 56.3978 and 53.8738 and 91.7643, the “recovery of lysyl oxidase family activity in the aorta, of initial activity” value ([2]; rats, single 30 mg kg−1 oral, 24 h after dosing) was “approximately 50%” and the “Lysyl oxidase family activity in freshly excised aorta” value ([2]; rats, 4 h) was 15.4162 and 30.1157 and 25.1081 and 16.4125 and 13.2925. The “Lysyl oxidase family activity in freshly excised aorta” value ([2]; rats, 24 h) was 54.6033 and 26.1568 and 51.6931 and 36.2595 and 23.1592, the “Lysyl oxidase family activity in freshly excised aorta” value ([2]; rats, 48 h) was 62.6086 and 39.9999 and 48.7392 and 69.3553 and 56.8756 and the “Lysyl oxidase family activity in freshly excised aorta” value ([2]; rats, 120 h) was 94.5071 and 44.5094 and 104.61 and 70.2729 and 55.285. For the same molecule, the “calculated block of all lysyl oxidase family activity” value ([2]; single daily oral dose of 30 mg kg−1, over a 24-h period) was greater than 70%, the “T-cell infiltration (CD8 positive staining)” value (CD8) was 7 and 5 and the “tolerability in preclinical toxicity studies” value ([3]; 6 months) was “well tolerated”. The “preclinical development including genotoxicity and toxicity studies” value ([3]; in vivo) was “successfully passed”.
